Measurements as given in ChEMBL document CHEMBL1201862, “PubChem BioAssay data set” (2004).
Where “and” joins values, the source holds several entries; their conditions need not be identical. Identical values can stand only once. Calls of active or inactive are those of the source.

Legend:
[1] = off-target signal loss in HeLa-CEM21 co-culture – HeLa F-luc CTL cells, cherry-picked, counter-screen for HIV-1 Env fusion inhibitor project, dose response (AID 652040); format: functional, cell-based;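 also: potency for signal decrease marking cytotoxic or nonspecific inhibition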
[2] = blockers of HIV-1 ZM109 envelope-driven cell-cell fusion – HeLa effector, CEM target cells, luciferase, cherry-pick, dose response (AID 652058); format: functional, cell-based;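 also: luciferase signal from HIV-1 Env mediated cell-cell fusion of effector and target cells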
[3] = blockers of HIV-1 envelope-mediated cell-cell fusion – cherry-pick, dose response (AID 652057); format: functional, cell-based
[4] = HIV-1 AD8 envelope cell-cell fusion blockers – cherry-pick, dose response (AID 652062); format: functional, cell-based;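 also: luciferase signal from cell-cell fusion driven by HIV-1 clade B AD8 Env; potency is for inhibitors of fusion seen as a drop in luminescence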
Cytochrome P450 3A4 = Cytochrome P450 3A4 (Homo sapiens, UniProt P08684);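 also: CYP3A4 tested as one member of a cytochrome P450 panel screen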
Chain of Cytochrome P450 3A4 (P08684 whole entry): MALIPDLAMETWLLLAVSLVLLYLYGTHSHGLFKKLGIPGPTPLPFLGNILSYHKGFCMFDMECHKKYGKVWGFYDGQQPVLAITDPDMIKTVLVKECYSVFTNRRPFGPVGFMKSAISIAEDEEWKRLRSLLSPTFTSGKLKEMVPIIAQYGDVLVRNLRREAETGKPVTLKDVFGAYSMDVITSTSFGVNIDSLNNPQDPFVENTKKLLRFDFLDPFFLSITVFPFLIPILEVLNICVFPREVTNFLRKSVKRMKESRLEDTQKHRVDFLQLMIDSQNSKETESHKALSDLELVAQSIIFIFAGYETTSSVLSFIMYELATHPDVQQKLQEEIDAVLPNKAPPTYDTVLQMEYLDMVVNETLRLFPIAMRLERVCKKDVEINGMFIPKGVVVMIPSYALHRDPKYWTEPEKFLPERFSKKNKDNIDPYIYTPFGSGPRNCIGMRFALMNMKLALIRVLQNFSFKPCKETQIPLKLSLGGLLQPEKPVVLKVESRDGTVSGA

Cytochrome P450 2C9 = Cytochrome P450 2C9 (Homo sapiens, UniProt P11712)
Chain of Cytochrome P450 2C9 (P11712 whole entry): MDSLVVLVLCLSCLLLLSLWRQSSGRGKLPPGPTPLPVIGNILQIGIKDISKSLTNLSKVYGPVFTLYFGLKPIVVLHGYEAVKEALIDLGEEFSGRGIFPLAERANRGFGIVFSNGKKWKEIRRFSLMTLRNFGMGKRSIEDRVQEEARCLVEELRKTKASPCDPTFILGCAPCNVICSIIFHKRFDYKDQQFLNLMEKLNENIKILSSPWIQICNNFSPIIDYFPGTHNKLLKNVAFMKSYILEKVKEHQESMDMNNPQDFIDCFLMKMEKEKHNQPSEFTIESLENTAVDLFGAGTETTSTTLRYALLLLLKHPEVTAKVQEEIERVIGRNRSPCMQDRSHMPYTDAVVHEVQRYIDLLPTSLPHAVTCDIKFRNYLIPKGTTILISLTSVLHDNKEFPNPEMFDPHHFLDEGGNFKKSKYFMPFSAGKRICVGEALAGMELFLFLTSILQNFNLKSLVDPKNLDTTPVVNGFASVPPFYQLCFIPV

H9c2 = assay: cells; format: functional, cell-based; conditions: Rattus norvegicus, H9c2, Myocardium;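 also: confirmatory concentration-response retest of ultra-high-throughput screening hits for modulation of myocardial damage; cell death induced by hydrogen peroxide oxidative stress; compound pretreatment for 60 min then peroxide exposure for 2 h; potency is for protecting the cells against peroxide damage rather than for killing them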
Cytochrome P450 1A2 = biological target: T1, Cytochrome P450 1A2 (Homo sapiens, UniProt P05177);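 also: PubChem cytochrome P450 panel assay, CYP1A2 panel member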
T1 sequence (P05177 whole entry): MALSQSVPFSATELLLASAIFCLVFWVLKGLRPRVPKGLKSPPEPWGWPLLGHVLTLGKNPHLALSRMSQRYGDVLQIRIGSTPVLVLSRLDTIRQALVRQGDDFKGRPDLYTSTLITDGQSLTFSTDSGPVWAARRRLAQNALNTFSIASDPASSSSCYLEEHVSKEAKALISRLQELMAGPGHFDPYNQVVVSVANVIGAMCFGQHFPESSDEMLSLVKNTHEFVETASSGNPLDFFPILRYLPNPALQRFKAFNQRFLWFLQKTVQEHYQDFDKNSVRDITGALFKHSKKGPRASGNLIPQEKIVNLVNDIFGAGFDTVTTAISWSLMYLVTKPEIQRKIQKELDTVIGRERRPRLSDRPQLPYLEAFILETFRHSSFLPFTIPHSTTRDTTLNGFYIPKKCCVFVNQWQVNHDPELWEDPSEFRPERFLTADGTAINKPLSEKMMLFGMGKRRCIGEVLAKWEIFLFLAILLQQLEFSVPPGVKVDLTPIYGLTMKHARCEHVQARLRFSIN

[5] = biological target: FAD-linked sulfhydryl oxidase ALR (Homo sapiens, UniProt P55789); assay: ALR-catalysed DTT oxidation blockers – biochemical, H2O2 detection, luminescence, cherry-pick, dose response (AID 493248)
Chain of FAD-linked sulfhydryl oxidase ALR (P55789 whole entry): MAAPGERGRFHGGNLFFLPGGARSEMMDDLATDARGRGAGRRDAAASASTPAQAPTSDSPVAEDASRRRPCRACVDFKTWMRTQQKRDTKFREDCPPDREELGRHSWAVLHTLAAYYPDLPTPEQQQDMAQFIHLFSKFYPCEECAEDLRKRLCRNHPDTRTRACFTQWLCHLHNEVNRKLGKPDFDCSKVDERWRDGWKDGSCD

[6] = test system: Streptococcus sp. 'group A'; assay: Streptococcus pyogenes SK(-)GAS viability under kanamycin – luminescence, BacTiterGlo, confirmation, counter-screen for streptokinase expression inhibitor project, dose response (AID 1900); format: functional, organism-based
Streptococcus = assay: GAS UMAA2166 growth inhibition – luminescence, BacTiterGlo, counter-screen for streptokinase expression inhibitor project, dose response (AID 1915); format: functional, organism-based;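 also: potency for reduction of bacterial viability or growth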
Streptokinase A = biological target: T2, Streptokinase A (Streptococcus pyogenes serotype M1, UniProt P10520); assay: viability-normalized secreted streptokinase activity reduction – plasminogen activation absorbance, OD405, dose response (AID 1914); format: functional, Streptococcus pyogenes M1 GAS;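 also: secreted streptokinase activity via plasminogen activation per viability signal from cell pellet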
T2 sequence (P10520 whole entry): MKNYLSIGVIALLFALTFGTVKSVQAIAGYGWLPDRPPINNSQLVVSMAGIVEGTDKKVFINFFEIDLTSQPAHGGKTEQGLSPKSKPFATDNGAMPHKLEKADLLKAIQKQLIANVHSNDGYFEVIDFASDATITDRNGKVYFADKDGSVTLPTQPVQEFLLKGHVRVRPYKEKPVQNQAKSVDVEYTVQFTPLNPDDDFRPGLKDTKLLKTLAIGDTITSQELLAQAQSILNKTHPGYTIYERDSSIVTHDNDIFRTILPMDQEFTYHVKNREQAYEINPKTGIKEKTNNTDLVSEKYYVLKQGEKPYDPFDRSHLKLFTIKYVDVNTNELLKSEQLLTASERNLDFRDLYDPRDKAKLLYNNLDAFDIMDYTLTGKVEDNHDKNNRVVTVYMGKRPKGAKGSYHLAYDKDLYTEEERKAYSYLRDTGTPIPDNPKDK

[7] = biological target: Induced myeloid leukemia cell differentiation protein Mcl-1 (Homo sapiens, UniProt Q07820); format: functional
Chain of Induced myeloid leukemia cell differentiation protein Mcl-1 (Q07820 whole entry): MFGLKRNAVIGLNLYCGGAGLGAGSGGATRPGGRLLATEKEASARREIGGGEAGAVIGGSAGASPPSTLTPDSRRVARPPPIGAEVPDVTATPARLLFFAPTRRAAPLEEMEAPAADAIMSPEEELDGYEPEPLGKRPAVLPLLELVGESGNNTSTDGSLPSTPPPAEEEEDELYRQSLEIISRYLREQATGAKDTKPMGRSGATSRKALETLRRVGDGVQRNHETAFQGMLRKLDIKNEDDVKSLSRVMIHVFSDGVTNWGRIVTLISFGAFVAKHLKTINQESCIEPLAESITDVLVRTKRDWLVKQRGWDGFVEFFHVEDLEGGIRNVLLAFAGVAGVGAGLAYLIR

[8] = biological target: T3, DNA repair protein RAD52 homolog (Homo sapiens, UniProt P43351); format: functional, biochemical
T3 sequence (P43351 whole entry): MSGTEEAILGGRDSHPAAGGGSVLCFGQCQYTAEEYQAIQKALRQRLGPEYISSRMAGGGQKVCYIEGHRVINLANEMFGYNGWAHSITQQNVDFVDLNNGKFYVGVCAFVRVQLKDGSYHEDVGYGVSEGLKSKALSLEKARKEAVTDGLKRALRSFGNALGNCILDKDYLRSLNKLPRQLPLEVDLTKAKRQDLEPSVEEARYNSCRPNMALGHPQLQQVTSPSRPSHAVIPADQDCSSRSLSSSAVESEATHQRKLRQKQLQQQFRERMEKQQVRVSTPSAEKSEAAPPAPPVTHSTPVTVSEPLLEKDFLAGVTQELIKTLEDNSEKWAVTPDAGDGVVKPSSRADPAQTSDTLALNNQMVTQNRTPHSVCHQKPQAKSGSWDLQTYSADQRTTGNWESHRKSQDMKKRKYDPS

[9] = biological target: T4, Heat shock factor protein 1 (Mus musculus, UniProt P38532); assay: enhancement of HSF1-driven luciferase signal – cell-based, NIH3T3, luminescence, dose retest, confirmation (AID 435004); format: functional;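 also: stress induced by proteasome inhibitor MG132 added 30 min after compound; luciferase reporter driven by HSF1 response element in NIH3T3 cells; actives raise luminescence as potentiators of the MG132 stress response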
T4 sequence (P38532 whole entry): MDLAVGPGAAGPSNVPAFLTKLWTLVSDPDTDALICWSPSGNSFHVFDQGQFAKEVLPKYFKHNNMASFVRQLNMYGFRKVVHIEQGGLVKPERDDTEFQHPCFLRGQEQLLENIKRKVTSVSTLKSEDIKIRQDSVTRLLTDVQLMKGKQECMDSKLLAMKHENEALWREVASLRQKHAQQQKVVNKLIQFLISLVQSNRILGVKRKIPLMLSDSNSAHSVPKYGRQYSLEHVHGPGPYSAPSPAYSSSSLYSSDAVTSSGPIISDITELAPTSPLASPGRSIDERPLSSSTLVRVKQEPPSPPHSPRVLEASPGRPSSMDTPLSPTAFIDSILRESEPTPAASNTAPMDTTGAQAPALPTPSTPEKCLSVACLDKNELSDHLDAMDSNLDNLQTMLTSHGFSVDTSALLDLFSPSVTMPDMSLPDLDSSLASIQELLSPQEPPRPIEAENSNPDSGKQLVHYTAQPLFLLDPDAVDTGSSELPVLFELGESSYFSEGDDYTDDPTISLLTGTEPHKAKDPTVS

Cytochrome P450 2D6 = Cytochrome P450 2D6 (Homo sapiens, UniProt P10635);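 also: CYP2D6 member of a cytochrome P450 panel assay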
Chain of Cytochrome P450 2D6 (P10635 whole entry): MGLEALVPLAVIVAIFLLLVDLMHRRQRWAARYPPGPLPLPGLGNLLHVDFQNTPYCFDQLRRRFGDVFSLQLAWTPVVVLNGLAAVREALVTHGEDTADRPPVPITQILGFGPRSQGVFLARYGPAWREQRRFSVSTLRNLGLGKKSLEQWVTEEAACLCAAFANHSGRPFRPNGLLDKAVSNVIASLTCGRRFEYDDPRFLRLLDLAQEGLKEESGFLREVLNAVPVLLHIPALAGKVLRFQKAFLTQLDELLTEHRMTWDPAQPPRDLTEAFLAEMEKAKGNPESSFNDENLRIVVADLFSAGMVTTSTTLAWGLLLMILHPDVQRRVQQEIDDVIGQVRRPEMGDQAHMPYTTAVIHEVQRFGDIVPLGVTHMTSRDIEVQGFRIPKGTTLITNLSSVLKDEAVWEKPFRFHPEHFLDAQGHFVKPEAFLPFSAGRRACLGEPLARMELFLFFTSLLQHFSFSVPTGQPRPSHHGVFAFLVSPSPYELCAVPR

[10] = reduction of Shn3 3'UTR-driven luciferase in osteoblasts – cell-based, Clone20 osteoblasts, firefly luciferase, cherry-picked, dose response (AID 624132); format: functional;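 also: firefly luciferase luminescence from reporter carrying the Shn3 3'UTR in osteoblasts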
Fatty acid synthase = Fatty acid synthase (Homo sapiens, UniProt P49327); assay: inhibition of human FAS-TE enzyme activity – biochemical, kinetic fluorescence intensity, dose response (AID 624326); format: functional;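 also: rate of fluorescence rise from hydrolysis of a fluorogenic O-methyl fluorescein ester substrate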
Chain of Fatty acid synthase (P49327 whole entry): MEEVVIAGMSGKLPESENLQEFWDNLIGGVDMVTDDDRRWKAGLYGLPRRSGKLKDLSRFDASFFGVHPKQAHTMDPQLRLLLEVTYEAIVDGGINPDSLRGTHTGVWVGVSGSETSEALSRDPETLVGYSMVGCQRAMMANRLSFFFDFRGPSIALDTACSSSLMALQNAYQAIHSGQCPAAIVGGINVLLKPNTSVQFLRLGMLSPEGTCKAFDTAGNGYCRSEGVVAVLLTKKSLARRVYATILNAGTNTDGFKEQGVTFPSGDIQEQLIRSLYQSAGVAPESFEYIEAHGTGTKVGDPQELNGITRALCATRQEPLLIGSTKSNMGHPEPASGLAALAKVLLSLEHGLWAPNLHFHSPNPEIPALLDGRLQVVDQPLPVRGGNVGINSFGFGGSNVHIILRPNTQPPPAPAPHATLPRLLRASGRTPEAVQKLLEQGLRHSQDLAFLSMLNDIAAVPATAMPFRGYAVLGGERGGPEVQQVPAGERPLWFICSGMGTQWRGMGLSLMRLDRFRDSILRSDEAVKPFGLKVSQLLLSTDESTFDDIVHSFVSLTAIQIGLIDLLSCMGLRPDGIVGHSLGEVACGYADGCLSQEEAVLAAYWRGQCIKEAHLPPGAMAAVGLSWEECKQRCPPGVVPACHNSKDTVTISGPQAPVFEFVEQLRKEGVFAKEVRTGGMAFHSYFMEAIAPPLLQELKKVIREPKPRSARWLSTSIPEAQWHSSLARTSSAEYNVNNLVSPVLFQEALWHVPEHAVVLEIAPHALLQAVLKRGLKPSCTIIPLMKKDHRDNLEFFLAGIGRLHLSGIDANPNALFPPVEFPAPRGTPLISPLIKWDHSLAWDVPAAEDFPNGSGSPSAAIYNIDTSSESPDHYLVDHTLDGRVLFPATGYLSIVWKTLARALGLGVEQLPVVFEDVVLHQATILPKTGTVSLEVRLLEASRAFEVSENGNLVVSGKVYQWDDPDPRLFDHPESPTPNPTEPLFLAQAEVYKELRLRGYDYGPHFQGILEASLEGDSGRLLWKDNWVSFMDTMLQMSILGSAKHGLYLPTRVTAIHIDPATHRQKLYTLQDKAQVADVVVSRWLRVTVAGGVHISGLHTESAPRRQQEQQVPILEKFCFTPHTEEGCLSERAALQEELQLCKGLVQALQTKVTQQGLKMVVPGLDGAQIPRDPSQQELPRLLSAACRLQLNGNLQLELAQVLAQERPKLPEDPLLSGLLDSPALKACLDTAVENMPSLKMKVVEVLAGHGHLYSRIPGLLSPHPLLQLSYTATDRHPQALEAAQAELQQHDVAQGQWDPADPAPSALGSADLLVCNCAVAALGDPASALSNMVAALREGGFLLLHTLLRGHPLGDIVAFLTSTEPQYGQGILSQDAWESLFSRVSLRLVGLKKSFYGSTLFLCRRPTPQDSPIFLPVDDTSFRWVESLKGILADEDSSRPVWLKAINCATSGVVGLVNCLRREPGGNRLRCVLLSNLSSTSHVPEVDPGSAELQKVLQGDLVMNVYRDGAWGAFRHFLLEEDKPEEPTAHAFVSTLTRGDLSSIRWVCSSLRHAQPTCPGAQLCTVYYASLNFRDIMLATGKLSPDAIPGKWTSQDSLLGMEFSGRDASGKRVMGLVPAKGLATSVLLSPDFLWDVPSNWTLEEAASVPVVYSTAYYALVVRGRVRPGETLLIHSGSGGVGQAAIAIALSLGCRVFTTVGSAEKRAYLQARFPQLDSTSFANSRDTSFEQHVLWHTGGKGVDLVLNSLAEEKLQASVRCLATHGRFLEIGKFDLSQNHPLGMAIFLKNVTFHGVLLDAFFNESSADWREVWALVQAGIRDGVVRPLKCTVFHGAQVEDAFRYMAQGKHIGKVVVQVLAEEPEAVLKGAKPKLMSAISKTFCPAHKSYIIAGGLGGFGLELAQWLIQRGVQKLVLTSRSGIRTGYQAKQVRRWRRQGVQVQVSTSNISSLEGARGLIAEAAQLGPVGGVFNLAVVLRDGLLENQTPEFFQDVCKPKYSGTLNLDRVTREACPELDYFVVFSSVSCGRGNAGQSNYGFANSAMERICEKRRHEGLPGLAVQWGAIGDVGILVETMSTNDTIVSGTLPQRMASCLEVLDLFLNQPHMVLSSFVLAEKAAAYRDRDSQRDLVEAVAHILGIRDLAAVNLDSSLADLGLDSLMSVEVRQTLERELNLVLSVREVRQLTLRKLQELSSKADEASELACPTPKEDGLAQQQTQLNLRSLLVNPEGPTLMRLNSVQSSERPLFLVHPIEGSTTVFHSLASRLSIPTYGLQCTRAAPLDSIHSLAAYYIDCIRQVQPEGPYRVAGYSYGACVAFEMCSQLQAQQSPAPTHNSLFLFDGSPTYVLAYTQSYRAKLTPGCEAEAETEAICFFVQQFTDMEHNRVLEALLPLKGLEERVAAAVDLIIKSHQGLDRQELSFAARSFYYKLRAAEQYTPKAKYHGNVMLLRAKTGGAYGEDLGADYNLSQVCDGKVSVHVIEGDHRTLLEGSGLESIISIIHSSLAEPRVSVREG

Cytochrome P450 2C19 = Cytochrome P450 2C19 (Homo sapiens, UniProt P33261); assay: Cytochrome panel assay with activity outcomes. Panel member name: p450-cyp2c19 Compounds with AC50 equal or less than 10 uM are considered active; format: functional; conditions: read-out: AC50
Chain of Cytochrome P450 2C19 (P33261 whole entry): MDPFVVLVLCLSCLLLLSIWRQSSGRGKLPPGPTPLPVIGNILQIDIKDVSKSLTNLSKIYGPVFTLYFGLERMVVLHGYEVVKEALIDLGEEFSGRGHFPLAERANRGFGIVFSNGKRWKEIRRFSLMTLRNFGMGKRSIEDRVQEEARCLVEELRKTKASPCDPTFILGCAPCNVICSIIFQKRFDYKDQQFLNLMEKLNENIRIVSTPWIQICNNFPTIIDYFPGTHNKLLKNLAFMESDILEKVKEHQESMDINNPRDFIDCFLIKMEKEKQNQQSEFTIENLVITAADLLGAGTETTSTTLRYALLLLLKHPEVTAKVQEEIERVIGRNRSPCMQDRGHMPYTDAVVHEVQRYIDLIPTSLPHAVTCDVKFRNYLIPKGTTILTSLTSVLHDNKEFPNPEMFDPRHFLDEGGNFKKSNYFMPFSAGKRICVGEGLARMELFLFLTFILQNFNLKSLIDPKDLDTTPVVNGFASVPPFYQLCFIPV

[11] = Luminescence Cell-Based Dose Retest to Confirm Inhibitors of Cancer Stem Cells. [Related pubchem assays (depositor defined):AID2717, AID2721]; format: functional; conditions: Homo sapiens
Vero = assay: cells; format: functional; conditions: Chlorocebus sabaeus

Structure (SMILES): Cc1ccc(-c2nnn(CC(=O)N(CC3CCCO3)C(C(=O)NC3CCCCC3)c3ccc(F)cc3)n2)o1 (stereo not given)
- AC50 [1]: 1.27 µM (active)
- AC50 [2]: 2.45 µM (active)
- AC50 [3]: 0.79 µM (active)
- AC50 [4]: 2.56 µM (active)

Structure (SMILES): O=C(Nc1cc(Cl)cc(Cl)c1)C(c1ccccc1)N1CCCCC1 (stereo not given)
- AC50 [1]: 7.36 µM (active)
- AC50 [2]: 8.47 µM (active)
- AC50 [3]: 3.35 µM (active)

Structure (SMILES): Oc1cccc2c(O)nccc12
- AC50 (Cytochrome P450 3A4): 25.1 µM (inconclusive)
- AC50 (Cytochrome P450 2C9): inconclusive
- IC50 (H9c2): 31.3 µM (inactive)
- AC50 (Cytochrome P450 1A2): 15.8 µM (inconclusive)

Structure (SMILES): COc1cccc(NC(=O)NNC(=O)CCc2ccc(O)c(O)c2)c1
- AC50 [5]: 3.12 µM (active)

Structure (SMILES): O=C(Nc1ccc2[nH]c(-c3ccc4[nH]cnc4c3)nc2c1)c1cccs1
- EC50 [6]: > 150 µM (not active)
- EC50 (Streptococcus): 48.4 µM (inconclusive)
- EC50 (Streptokinase A): > 150 µM (not active)
- IC50 [7]: 7.21 µM (active)

Structure (SMILES): O=C(NCC(F)(F)F)[C@@H]1c2ccccc2C(=O)N(CC23CC4CC(CC(C4)C2)C3)[C@H]1c1ccc(CO)cc1
- AC50 [3]: 0.304 µM (active)
- AC50 [4]: 2.43 µM (active)

Structure (SMILES): COC(=O)Cc1ccc(O)c(N)c1
- AC50 [5]: 21.6 µM (active)

Structure (SMILES): CN(C)CCNC(=O)c1cccc(-c2cnc3c(NC=O)cc(-c4cc(F)c(F)c(F)c4)cn23)c1
- AC50 [8]: 7.21 µM (active)

Structure (SMILES): Cn1c(C(=O)NCCCN2CCN(c3ccccc3F)CC2)cc2c(O)nc3ccccc3c21
- AC50 [1]: 24.5 µM (active)
- AC50 [2]: 10.3 µM (active)
- AC50 [3]: 2.82 µM (active)
- AC50 [4]: 8.93 µM (active)

Structure (SMILES): C1=C(c2ccco2)N2CCN=C2S1
- AC50 [5]: 2.33 µM (active)

Structure (SMILES): COc1cc(COCC(O)CN2CCN(CCN3C(=O)c4cccc5cccc(c45)C3=O)CC2)cc(OC)c1OC (stereo not given)
- AC50 [8]: 3.54 µM (active)
- EC50 [9]: 59.2 µM (active)

Structure (SMILES): O=S(=O)(c1cccc2c(Cl)cccc12)N1CCCNCC1
- AC50 (Cytochrome P450 2D6): 39.8 µM (inconclusive) and 25.1 µM (inconclusive)
- AC50 (Cytochrome P450 2C9): inconclusive
- AC50 (Cytochrome P450 1A2): 15.8 µM (inconclusive) and 31.6 µM (inconclusive)

Structure (SMILES): Sc1[nH]cnc2c3cc(Cl)ccc3nc1-2
- AC50 [1]: 2.35 µM (active)
- AC50 [3]: 3.37 µM (active)

Structure (SMILES): COc1ccc(CCNC(=O)CCC(=O)N2CCOc3ccc(Cl)cc32)cc1OC
- AC50 [10]: > 70 µM (inactive)

Structure (SMILES): Cc1ccc(/C=C2\SC(=S)N(Cc3ccccc3)C2=O)o1
- IC50 [7]: 3.76 µM (not active)

Structure (SMILES): CCN(CC(=O)NCc1cccs1)S(=O)(=O)c1ccc([N+](=O)[O-])cc1
- IC50 (Fatty acid synthase): 17.7 µM (active)

Structure (SMILES): O=C(O)CCc1ccc(-c2ccccc2)n1NC(=O)c1sc2ccccc2c1Cl
- AC50 [5]: 1.72 µM (active)

Structure (SMILES): CCC(C)[C@H]1CN=C(S)N1CCc1cc(C(F)(F)F)cc(C(F)(F)F)c1 (stereo not given in full)
- AC50 [10]: 21.6 µM (active)

Structure (SMILES): Cc1nn(C(=O)CN2C(=O)c3ccccc3C2=O)c(C)c1Br
- AC50 (Cytochrome P450 2C19): 4.47 µM (inconclusive)
- AC50 (Cytochrome P450 2D6): 7.08 µM (inconclusive)
- AC50 (Cytochrome P450 2C9): inconclusive

Structure (SMILES): C[C@@H]1NC(=O)[C@H](CCCN=C(N)N)NC(=O)c2cc([N+](=O)[O-])cc(I)c2NCCC[C@@H](C(N)=O)NC1=O
- AC50 [8]: 12.3 µM (active)

Structure (SMILES): CCOc1ccc(NC(=O)N(CCN2CCOCC2)Cc2ccc3c(c2)CCCN3CC)cc1
- IC50 [7]: 0.852 µM (active)

Structure (SMILES): CC(C)CC#Cc1ccc2c(c1)O[C@@H](CN(C)S(=O)(=O)c1ccc(F)cc1)[C@@H](C)CN([C@H](C)CO)S2(=O)=O
- AC50 [2]: 10.1 µM (active)
- AC50 [3]: 19.6 µM (active)
- AC50 [4]: 10.2 µM (active)

Structure (SMILES): CN1CC[C@@H]2CN[C@H](c3ccccc3Br)C[C@@H]21
- AC50 [8]: 4.58 µM (active)

Structure (SMILES): O=C(O)c1ccc(C=C(c2nc3ccccc3s2)c2nc3ccccc3s2)cc1
- AC50 [11]: 4.53 µM (active)
- CC50 (Vero): > 25 µM (active)

Structure (SMILES): COc1ccc(C2N(S(=O)(=O)c3ccc(C)cc3)CCN2S(=O)(=O)c2ccc(C)cc2)cc1
- AC50 [1]: 6.47 µM (active)
- AC50 [2]: 0.715 µM (active)
- AC50 [3]: 3.05 µM (active)
- AC50 [4]: 4.68 µM (active)

Structure (SMILES): C[N+](C)(C)CC(=O)N/N=C/c1c2ccccc2cc2ccccc12
- AC50 [8]: 4.16 µM (active)

Structure (SMILES): COc1ccc(C2CC(c3cccc(F)c3)=NN2c2ccc(S(N)(=O)=O)cc2)cc1 (stereo not given)
- CC50 (Vero): > 25 µM (active)

Structure (SMILES): Nc1c(C(=O)Nc2ccc(Br)cc2)sc2nc(N3CCOCC3)c3c(c12)CCCC3
- CC50 (Vero): > 25 µM (active)
